{"source": "patent EP1881000A1", "about": "“Conjugates of 2-fluoro-2-deoxy-glucose and their uses as anti cancer agents” (INSTITUT NATIONAL DE LA SANTE ET DE LA RECHERCHE MEDICALE …, priority 2006, dated 2008)", "system": "tumour cells", "assay": "In vitro cytotoxicity assay, statements over all cell lines of Table 1", "assay_type": "cell-based", "details": "Homo sapiens, PA-1", "from_the_text": "Normal human fibroblasts were purchased from Promocell (Heidelberg, Germany). This frozen culture was obtained from foreskin waste and the cells used in this work were from the seventh to twelfth passage of the culture. M4Beu, a human melanoma cell line, was established in the laboratory of Dr. J. F. Doré (INSERM, Unit 218, Lyon, France) from metastatic biopsy specimens and maintained in cell culture for almost 20 years in our lab. Breast cancer adenocarcinoma MCF 7, prostatic adenocarcinoma PC 3, colon adenocarcinoma DLD-1, lung non-small cell carcinoma A 549, ovary adenocarcinoma PA1 human cell lines and L 929 murine cell line were purchased from the European Collection of Cell Cultures (ECACC; Salisbury, United Kingdom). Murine Melanoma B16 was purchased from American Type of Culture Collection (ATCC, Manassas, USA) and murine colon carcinoma cell line CT-26 was obtained from Dr I. J. Fidler (University of Texas M.D. Anderson Cancer Center, Houston). […]\nResazurin was identified as the Alamar blue dye (O'Brien, J. et al.; European Journal of Biochemistry, 267, 5421-6, (2000)). […] The plates were incubated 1 h at 37° C. in an humidified atmosphere with 5% of CO2 for fluorescence development by living cells. Fluorescence was then measured on the automated 96-well plate reader Fluoroskan Ascent FL™ (Labsystems) using an excitation wavelength of 530 nm and an emission one of 590 nm. […]", "note": "pIC50: −log10 of the molar value."}
{"compound": "O=C(O)CCCc1ccc(N(CCCl)CCCl)cc1", "note": "[chlorambucil, reference compound]", "values": [{"measurement": "pIC50", "result": "< 4.40"}]}
